# Measured values reported in ChEMBL document CHEMBL1142733, “Binding thermodynamics as a tool to investigate the mechanisms of drug-receptor interactions: thermodynamics of cytoplasmic steroid/nuclear receptors in comparison with membrane receptors” (J Med Chem, 2005).
# Legend:
# [1] = target: T1, Adenosine receptor A1 (Homo sapiens) (UniProt P30542)
# T1 sequence (whole entry): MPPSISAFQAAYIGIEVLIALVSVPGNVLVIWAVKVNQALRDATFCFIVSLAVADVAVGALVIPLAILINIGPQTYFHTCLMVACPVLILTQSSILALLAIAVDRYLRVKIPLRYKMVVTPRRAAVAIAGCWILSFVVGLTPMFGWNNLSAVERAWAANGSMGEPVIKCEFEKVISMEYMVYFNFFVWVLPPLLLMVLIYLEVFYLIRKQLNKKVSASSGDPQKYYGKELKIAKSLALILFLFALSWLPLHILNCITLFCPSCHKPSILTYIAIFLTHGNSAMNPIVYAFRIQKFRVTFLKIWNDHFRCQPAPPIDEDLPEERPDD
# Description: (§1) Dissociation constant against Adenosine A1 receptor
# Progesterone receptor [2] = target: T2, Progesterone receptor (Homo sapiens, UniProt P06401); assay: Dissociation constant for [3H]-ORG2058 at human progesterone receptor at 310K
# T2 sequence (P06401 whole entry): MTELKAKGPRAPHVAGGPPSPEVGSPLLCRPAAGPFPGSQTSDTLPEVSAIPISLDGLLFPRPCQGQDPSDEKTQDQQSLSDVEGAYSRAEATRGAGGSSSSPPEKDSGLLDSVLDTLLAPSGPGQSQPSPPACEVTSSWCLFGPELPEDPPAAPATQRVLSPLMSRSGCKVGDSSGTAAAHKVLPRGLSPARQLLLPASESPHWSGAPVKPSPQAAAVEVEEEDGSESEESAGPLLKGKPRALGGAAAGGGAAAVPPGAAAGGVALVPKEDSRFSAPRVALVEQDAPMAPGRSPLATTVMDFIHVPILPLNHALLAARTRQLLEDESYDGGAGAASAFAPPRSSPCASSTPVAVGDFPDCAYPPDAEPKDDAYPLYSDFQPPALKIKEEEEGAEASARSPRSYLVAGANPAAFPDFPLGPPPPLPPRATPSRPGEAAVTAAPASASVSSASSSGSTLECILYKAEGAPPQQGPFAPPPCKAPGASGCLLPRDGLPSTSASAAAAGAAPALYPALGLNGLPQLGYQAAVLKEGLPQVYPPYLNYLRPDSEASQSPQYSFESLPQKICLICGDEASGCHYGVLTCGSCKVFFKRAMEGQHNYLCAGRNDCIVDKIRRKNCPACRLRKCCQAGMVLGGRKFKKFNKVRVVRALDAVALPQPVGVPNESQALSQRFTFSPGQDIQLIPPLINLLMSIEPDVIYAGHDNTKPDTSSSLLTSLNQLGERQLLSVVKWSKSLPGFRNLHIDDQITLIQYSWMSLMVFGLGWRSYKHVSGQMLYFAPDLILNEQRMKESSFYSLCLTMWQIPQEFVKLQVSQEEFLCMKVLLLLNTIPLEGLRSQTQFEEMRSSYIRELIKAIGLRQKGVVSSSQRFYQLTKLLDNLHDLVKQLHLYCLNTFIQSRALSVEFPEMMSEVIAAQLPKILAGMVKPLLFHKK
# Progesterone receptor [3] = target: T2, Progesterone receptor; assay: Dissociation constant for [3H]ORG2058 at human progesterone receptor at 273 K
# Progesterone receptor [4] = target: T2, Progesterone receptor; assay: Dissociation constant for [3H]-ORG2058 at human progesterone receptor at 283 K
# Progesterone receptor [5] = target: T2, Progesterone receptor; assay: Dissociation constant for [3H]ORG2058 at human progesterone receptor at 293K
# Progesterone receptor [6] = target: T2, Progesterone receptor; assay: Dissociation constant for [3H]ORG2058 at human progesterone receptor at 298 K
# Progesterone receptor [7] = target: T2, Progesterone receptor; assay: Dissociation constant for [3H]-ORG2058 at human progesterone receptor at 278 K
# Progesterone receptor [8] = target: T2, Progesterone receptor; assay: Dissociation constant for [3H]ORG2058 at human progesterone receptor at 288 K
# Progesterone receptor [9] = target: T2, Progesterone receptor; assay: Dissociation constant for [3H]ORG2058 at human progesterone receptor at 303 K
# Progesterone receptor [10] = target: T2, Progesterone receptor; assay: Dissociation constant for [3H]ORG2058 at human progesterone receptor at 308 K
# Adenosine receptor A1 = target: T3, Adenosine receptor A1 (Homo sapiens, UniProt P30542)
# T3 sequence (P30542 whole entry): T1 sequence (whole entry)
# Description: as §1
compound,measurement,setting,value
CC(C)Cn1c(=O)n(C)c(=O)c2nc[nH]c21,KD hydro,[1],19000 µM
CC[C@@H]1C[C@H]2[C@@H]3CCC4=CC(=O)CC[C@@H]4[C@H]3CC[C@]2(C)[C@H]1C(=O)CO,Kd,Progesterone receptor [2],0.00542 µM
same,Kd,Progesterone receptor [3],0.00328 µM
same,Kd,Progesterone receptor [4],0.00249 µM
same,Kd,Progesterone receptor [5],0.00264 µM
same,Kd,Progesterone receptor [6],0.00316 µM
same,Kd,Progesterone receptor [7],0.0027 µM
same,Kd,Progesterone receptor [8],0.00232 µM
same,Kd,Progesterone receptor [9],0.00413 µM
same,Kd,Progesterone receptor [10],0.00456 µM
CC(C)Cn1c(=O)n(C)c(=O)c2[nH]cnc21 [ISOBUTYLMETHYLXANTHINE],Kd,Adenosine receptor A1,5.9 µM
